Experimental findings from ChEMBL document CHEMBL4219231, “Nε-Acryloyllysine Piperazides as Irreversible Inhibitors of Transglutaminase 2: Synthesis, Structure-Activity Relationships, and Pharmacokinetic Profiling” (J Med Chem, 2018) are described below.

As usually defined, the Papp is the rate of passage across a membrane or cell layer, normalised by area and donor concentration. A word on the IC50: it is the midpoint of a concentration-inhibition curve. A word on the logD: it is lipophilicity at a set pH, counting ionised and neutral species.

In brackets after ≈: the same amount, converted by molar mass. Activity calls are given as the source filed them. The rule behind the calls is not given here.

The nature of series [1]: Metabolic stability in mouse liver microsomes assessed as parent compound remaining at 100 uM measured after 60 mins by HPLC-UV analysis. The format is ADME, microsome. In general terms: Microsomes from liver hold many membrane-bound enzymes, among them those of drug oxidation.
For series [2], the species on record is Cavia porcellus. The series can be described thus: Irreversible inhibition of guinea pig TGase 2 using F-Cad/DMC as substrate at 30 uM preincubated for 30 mins followed by 1:100 dilution of compound-enzyme pre-incubated mixture at 30 secs interval over 900 secs by fluorescence anisotropy assay.
Series [3] in a line: in vitro. The note with it: PAMPA.
Description: Effective permeability of the compound by PAMPA assay
Series [4] addresses T1, Protein-glutamine gamma-glutamyltransferase (Homo sapiens, UniProt P21980).
T1 sequence (P21980 whole entry): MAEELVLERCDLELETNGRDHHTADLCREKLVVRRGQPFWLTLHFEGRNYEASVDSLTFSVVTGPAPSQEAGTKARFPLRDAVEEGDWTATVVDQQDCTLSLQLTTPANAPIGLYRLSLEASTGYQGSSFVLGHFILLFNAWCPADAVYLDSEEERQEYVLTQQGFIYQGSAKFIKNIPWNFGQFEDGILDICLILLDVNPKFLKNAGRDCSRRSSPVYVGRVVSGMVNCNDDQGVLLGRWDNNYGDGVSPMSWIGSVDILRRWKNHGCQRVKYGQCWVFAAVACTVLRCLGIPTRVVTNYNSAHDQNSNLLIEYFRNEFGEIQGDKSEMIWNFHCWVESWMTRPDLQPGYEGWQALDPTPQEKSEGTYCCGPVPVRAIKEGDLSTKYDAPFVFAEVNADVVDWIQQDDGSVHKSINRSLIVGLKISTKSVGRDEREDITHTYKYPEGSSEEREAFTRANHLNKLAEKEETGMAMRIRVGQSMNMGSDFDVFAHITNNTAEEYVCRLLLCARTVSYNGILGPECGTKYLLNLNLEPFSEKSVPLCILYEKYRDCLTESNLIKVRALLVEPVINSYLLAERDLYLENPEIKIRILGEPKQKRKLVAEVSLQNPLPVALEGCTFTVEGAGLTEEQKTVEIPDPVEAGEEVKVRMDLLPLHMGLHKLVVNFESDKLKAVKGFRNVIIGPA
Nature of the series: Inhibition of TGase 2 in human A375 cells using R-I-Cad/DMC as substrate preincubated for 5 mins followed by substrate addition measured at 30 secs interval over 900 secs by fluorescence anisotropy assay. Format: cell-based. On the technique in general: Polarisation of emitted light reports the rotation of a fluorescent probe.

The target in series [5] is T1, Protein-glutamine gamma-glutamyltransferase. Nature of the series: Reversible inhibition of human TGase 2 using Z-Glu(HMC)-Gly-OH as substrate measured at 20 secs interval over 900 secs by fluorimetric assay.
A short description of series [6]: Chromatographic hydrophobicity index in immobilized artificial membrane at pH 7.4 by HPLC method. Format: ADME, cell membranes.
Series [7] in a line: Inhibition of guinea pig TGase 2 using F-Cad/DMC as substrate preincubated for 30 mins followed by substrate addition measured at 30 secs interval over 900 secs by fluorescence anisotropy assay. Further details: species or system Cavia porcellus.
Series [8] addresses T1, Protein-glutamine gamma-glutamyltransferase. The series can be described thus: Inhibition of human TGase 2 using R-I-Cad/DMC as substrate preincubated for 5 mins followed by substrate addition measured at 30 secs interval over 900 secs by fluorescence anisotropy assay.
Series [9] can be described thus: Membrane retention, RM of the compound. Format: physicochemical.
For series [10], the species on record is Homo sapiens. The series can be described thus: Selectivity index, ratio of Kinact/Ki for human TGase 2 to Kinact/Ki for human Factor 13a.
The species named for series [11] is Homo sapiens. The series can be described thus: Selectivity index, ratio of Kinact/Ki for human TGase 2 to Kinact/Ki for human TGase 3.
For series [12], the species on record is Homo sapiens. The series can be described thus: Selectivity index, ratio of Kinact/Ki for human TGase 2 to Kinact/Ki for human TGase 6.
The species named for series [13] is Homo sapiens. Nature of the series: Selectivity index, ratio of Kinact/Ki for human TGase 2 to Kinact/Ki for human TGase 1.
Series [14] is described as follows: Thermodynamic solubility of the compound in 0.01 M phosphate buffer at pH 7.4 at 22 degC after 39 hrs by UPLC-DAD-MS analysis. Format: physicochemical. The note with it: read-out: Therm_solubility.
Series [15] concerns the target T2, Protein-glutamine gamma-glutamyltransferase (Homo sapiens) (UniProt P21980).
T2 sequence (whole entry): T1 sequence (P21980 whole entry)
The series can be described thus: Irreversible inhibition of human TGase 2 using Z-Glu(HMC)-Gly-OH as substrate up to 25 uM measured at 20 secs interval over 900 secs by fluorimetric assay.

Series [16] is described as follows: Drug metabolism in mouse liver microsomes assessed as metabolic transformation at pyridylpiperazine moiety at 100 uM measured after 60 mins by EPI-mass spectroscopy. The format is ADME, microsome. The following applies: 1 h.
The nature of series [17]: n-octanol-phosphate buffer partition coefficient, log D of compound at pH 7.4 by 19F NMR analysis. The format is physicochemical.
The nature of series [18]: Thermodynamic solubility of the compound in 0.01 M phosphate buffer at pH 7.4 at 22 degC after 26 hrs by UPLC-DAD-MS analysis. The format is physicochemical. The note with it: read-out: Therm_solubility.
Series [19] deals with T2, Protein-glutamine gamma-glutamyltransferase (Homo sapiens). Nature of the series: Inhibition of human TGase 2 assessed as enzyme activity factor using R-I-Cad/DMC as substrate at 10 to 240 nM preincubated for 40 mins followed by substrate addition measured at 30 secs interval over 900 secs by fluorescence anisotropy assay. The arrangement: scale not given: the % may be the effect or the level left.

Series [20] has the same target. Nature of the series: Inhibition of human TGase 2 assessed as enzyme activity factor using Z-Glu(HMC)-Gly-OH as substrate at 5 to 100 nM preincubated for 40 mins followed by substrate addition measured over 300 secs by fluorimetric assay. Further details: scale not given: the % may be the effect or the level left.
Series [21] addresses T1, Protein-glutamine gamma-glutamyltransferase. The series can be described thus: Irreversible inhibition of human TGase 2 using Z-Glu(HMC)-Gly-OH as substrate measured at 20 secs interval over 900 secs by fluorimetric assay.

`C=CC(=O)NCCCC[C@H](NC(=O)Cc1ccccc1)C(=O)N1CCN(c2cccc(C)n2)CC1`: the remaining at 1 h, 100 µM in [1] (liver microsomes, read-out: Stability) amounted to 62%. For the same molecule, the inhibition result in series [2] was “Active”. For the same molecule, the Papp in series [3] is 8.77 ×10⁻⁶ cm/s. For the same molecule, the results for the IC50 in [4], in series [7] and in [8] were 790 nM, 270 nM and 310 nM, respectively. The same molecule registered a Ki in series [5] of 5730 nM. In series [6], this molecule had a CHI of 29.4. Moreover, the Rm in series [9] is listed as -1%.
Take `C=CC(=O)NCCCC[C@H](NC(=O)Cc1ccccc1)C(=O)N1CCN(c2cccc([N+](=O)[O-])n2)CC1`: the Selectivity Index in [10], in series [11], in series [12] and in [13] was 275 to 1920 in each case. Also, the Papp in series [3] stood at 9.16 ×10⁻⁶ cm/s. Moreover, the IC50 in [4] turned out to be 400 nM; in [7], 120 nM; in series [8], 100 nM. Besides, in [5], the Ki was determined as 2260 nM. In series [6], the CHI was determined as 30.7. The solubility thermodynamic at 39 h in [14] was 452 µM (≈ 230 µg/mL). Further, the Rm in series [9] stood at 10%. In addition, the inhibition entry in [15] is “Active”.
As for `C=CC(=O)NCCCC[C@H](NC(=O)Cc1ccccc1)C(=O)N1CCN(c2cccc(F)n2)CC1`, the Drug metabolism result in series [16] is listed as “Metabolite_Detected”. For the same molecule, in [1] (microsomes, 1 h, 100 µM), the Stability result is on record as “Unstable”. Moreover, the Selectivity Index in series [10], in [11], in [12] and in [13] was 275 to 1920 throughout. The molecule further registered a logD in [17] of 2.1. The molecule also displayed a Papp in series [3] of 13.3 ×10⁻⁶ cm/s. The results for the IC50 in series [4], in series [7] and in [8] were 1100 nM, 200 nM and 110 nM, respectively. Also, in series [5], the Ki is 6280 nM. Further, in series [18], the solubility thermodynamic at 26 h was determined as 645 µM (≈ 311 µg/mL). This molecule also registered a CHI in series [6] of 31.8. In addition, in series [9], the Rm worked out at 14%.
`C=CC(=O)NCCCC[C@H](NC(=O)Cc1ccccc1)C(=O)N1CCN(c2ccc([N+](=O)[O-])nc2)CC1`: the figures for the Activity in series [19] and in series [20] were 80% and 74.4%, respectively. Besides, the half-inhibitory concentration (IC50) in [7] came to 150 nM; in series [8], 90 nM. Besides, the Ki in series [21] worked out at 2450 nM.
